# Test system: urinary nitrogen excretion
# Assay: Phase I double-blind, placebo-controlled, multiple dose evaluation of test compound in calorically restricted, obese men and women
# Type: in vivo, human
# Conditions: obese subjects on caloric-restricted diet, 3 mg po tid, 6 mg po tid or 10 mg po qam for seven days
# Method: Phase I Double-Blind, Placebo-Controlled, Multiple Dose Evaluation of Test Compound in Calorically Restricted, Obese Men and Women
# A total of 48 obese subjects, with a negative exercise tolerance test and without significant other medical problems, were recruited for this study and placed on a caloric-restricted diet. Subjects were randomized to either placebo, 3 mg po tid, 6 mg po tid or 10 mg po qam of the test compound, 2-amino-N-[2-(3a-(R)-benzyl-2-methyl-3-oxo-2,3,3a,4,6,7-hexahydro-pyrazolo[4,3-c]pyridin-5-yl)-1-(R)-benzyloxymethyl-2-oxo-ethyl]-isobutyramide, L-tartrate, for a total of seven days.
# The primary efficacy outcome variable of this study was urinary nitrogen excretion. Breakdown of protein (protein catabolism) may be measured by urinary nitrogen excretion. The covariates determined in this study included: 1.) gender; 2.) serum total and free testosterone; and 3.) serum total and free estradiol.
structure (smiles),measurement,setting,value
"CN1N=C2CCN(C(=O)[C@@H](COCc3ccccc3)NC(=O)C(C)(C)N)C[C@@]2(Cc2ccccc2)C1=O.O=C(O)C(O)C(O)C(=O)O [test compound, 2-amino-N-[2-(3a-(R)-benzyl-2-methyl-3-oxo-2,3,3a,4,6,7-hexahydro-pyrazolo[4,3-c]pyridin-5-yl)-1-(R)-benzyloxymethyl-2-oxo-ethyl]-isobutyramide, L-tartrate]",effect on urinary nitrogen (excretion),men,manifest in men
same,effect on urinary nitrogen (excretion),women,modest effects of treatment in women

# Reference: patent US20030199514A1, “Methods for improving efficacy of treatment with growth hormone secretagogues” (priority 2002, published 2003)
